Experimental data: the supplement of paper PMC10307832

Key:
Assay in all cases: relative viability (nuclei count vs DMSO), 5 days (fraction); higher = more cells survive
Carboplatin + Trametinib = compound: C1CC(C1)(C(=O)O)C(=O)O.[NH2-].[NH2-].[Pt+2] [Carboplatin] + CC(=O)Nc1cccc(-n2c(=O)n(C3CC3)c(=O)c3c(Nc4ccc(I)cc4F)n(C)c(=O)c(C)c32)c1 [Trametinib] (partner 0.02 µM)
Method in brief: (§1)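 Medians of duplicate plates are given as relative viability. That measure is the nuclei count in treated wells divided by the count in vehicle wells. Counts were taken on 4× images of lung cancer cell lines in 1536-well plates, 5 days after pin-tool dosing the day after seeding with one drug alone or a fixed anchor-drug dose plus five library-drug doses (not always all listed) in √10 steps.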

MLN4924 + Olaparib = compound: NS(=O)(=O)OC[C@@H]1C[C@@H](n2ccc3c(N[C@H]4CCc5ccccc54)ncnc32)C[C@@H]1O [MLN4924] + O=C(c1cc(Cc2n[nH]c(=O)c3ccccc23)ccc1F)N1CCN(C(=O)C2CC2)CC1 [Olaparib] (partner 8 µM)
Method in brief: as §1

MLN4924 + AZD7762 = compound: NS(=O)(=O)OC[C@@H]1C[C@@H](n2ccc3c(N[C@H]4CCc5ccccc54)ncnc32)C[C@@H]1O [MLN4924] + NC(=O)Nc1cc(-c2cccc(F)c2)sc1C(=O)N[C@H]1CCCNC1 [AZD7762] (partner 0.2 µM)
Method in brief: as §1

GSK126 + Trametinib = compound: CC[C@H](C)N1C=C(C2=C(C=C(C=C21)C3=CN=C(C=C3)N4CCNCC4)C(=O)NCC5=C(C=C(NC5=O)C)C)C [GSK126] + CC(=O)Nc1cccc(-n2c(=O)n(C3CC3)c(=O)c3c(Nc4ccc(I)cc4F)n(C)c(=O)c(C)c32)c1 [Trametinib] (partner 0.02 µM)
Method in brief: as §1

| Cell Line | relative viability (Carboplatin + Trametinib; first compound 0.08 µM) | relative viability (Carboplatin + Trametinib; first compound 0.253 µM) | relative viability (Carboplatin + Trametinib; first compound 0.8 µM) | relative viability (Carboplatin + Trametinib; first compound 2.53 µM) | relative viability (Carboplatin + Trametinib; first compound 8 µM) | relative viability (MLN4924 + Olaparib; first compound 0.04 µM) | relative viability (MLN4924 + Olaparib; first compound 0.1265 µM) | relative viability (MLN4924 + Olaparib; first compound 0.4 µM) | relative viability (MLN4924 + Olaparib; first compound 1.265 µM) | relative viability (MLN4924 + Olaparib; first compound 4 µM) | relative viability (MLN4924 + AZD7762; first compound 0.04 µM) | relative viability (MLN4924 + AZD7762; first compound 0.1265 µM) | relative viability (MLN4924 + AZD7762; first compound 0.4 µM) | relative viability (MLN4924 + AZD7762; first compound 1.265 µM) | relative viability (MLN4924 + AZD7762; first compound 4 µM) | relative viability (GSK126 + Trametinib; first compound 0.08 µM) | relative viability (GSK126 + Trametinib; first compound 0.253 µM) | relative viability (GSK126 + Trametinib; first compound 0.8 µM) | relative viability (GSK126 + Trametinib; first compound 2.53 µM) | relative viability (GSK126 + Trametinib; first compound 8 µM) |
| --- | --- | --- | --- | --- | --- | --- | --- | --- | --- | --- | --- | --- | --- | --- | --- | --- | --- | --- | --- | --- |
| LU99A | 0.602 | 0.634 | 0.537 | 0.55 | 0.418 | 0.18 | 0.136 | 0.16 | 0.108 | 0.0968 | 0.28 | 0.214 | 0.185 | 0.154 | 0.114 | 0.631 | 0.519 | 0.547 | 0.552 | 0.546 |
| LXF-289 | 0.671 | 0.717 | 0.674 | 0.712 | 0.656 | 0.919 | 0.429 | 0.381 | 0.132 | 0.0927 | 1.06 | 0.775 | 0.691 | 0.113 | 0.0848 | 0.66 | 0.665 | 0.7 | 0.611 | 0.693 |
| NCI-H23 | 0.414 | 0.425 | 0.364 | 0.366 | 0.389 | 0.343 | 0.245 | 0.239 | 0.143 | 0.131 | 0.304 | 0.263 | 0.282 | 0.213 | 0.28 | 0.434 | 0.378 | 0.407 | 0.551 | 0.391 |
| NCI-H322M | 0.543 | 0.488 | 0.537 | 0.552 | 0.525 | 0.708 | 0.511 | 0.498 | 0.372 | 0.427 | 0.688 | 0.643 | 0.64 | 0.317 | 0.39 | 0.499 | 0.478 | 0.482 | 0.548 | 0.552 |
| NCI-H358 | 0.145 | 0.148 | 0.121 | 0.16 | 0.14 | 0.537 | 0.494 | 0.312 | 0.0861 | 0.105 | 0.518 | 0.472 | 0.369 | 0.144 | 0.215 | 0.15 | 0.141 | 0.158 | 0.12 | 0.138 |
| NCI-H441 | 0.556 | 0.448 | 0.479 | 0.467 | 0.371 | 0.567 | 0.426 | 0.296 | 0.143 | 0.169 | 1.23 | 1.12 | 0.722 | 0.452 | 0.173 | 0.538 | 0.471 | 0.571 | 0.483 | 0.343 |
| NCI-H460 | 0.161 | 0.139 | 0.155 | 0.0949 | 0.0458 | 0.395 | 0.372 | 0.427 | 0.0925 | 0.0401 | 0.575 | 0.772 | 0.621 | 0.206 | 0.0543 | 0.422 | 0.153 | 0.121 | 0.11 | 0.195 |
| NCI-H522 | 0.724 | 0.876 | 0.632 | 0.781 | 0.762 | 0.568 | 0.495 | 0.485 | 0.288 | 0.322 | 0.919 | 0.69 | 0.588 | 0.353 | 0.383 | 0.773 | 0.716 | 0.647 | 0.654 | 0.829 |
| NCI-H596 | 0.846 | 0.845 | 0.722 | 0.645 | 0.518 | 0.815 | 0.626 | 0.436 | 0.595 | 0.557 | 1.04 | 1.22 | 1.06 | 1.15 | 1.19 | 0.803 | 0.687 | 0.697 | 0.862 | 0.733 |
| NCI-H647 | 0.533 | 0.483 | 0.413 | 0.469 | 0.457 | 0.392 | 0.125 | 0.0492 | 0.0302 | 0.0464 | 0.412 | 0.334 | 0.0972 | 0.0222 | 0.0279 | 0.55 | 0.461 | 0.381 | 0.44 | 0.413 |
| NCI-H650 | 1.01 | 1.08 | 1 | 0.849 | 0.818 | 0.244 | 0.159 | 0.17 | 0.137 | 0.129 | 1.1 | 0.578 | 0.371 | 0.231 | 0.148 | 1.02 | 0.891 | 0.919 | 0.945 | 0.994 |
| NCI-H727 | 0.391 | 0.4 | 0.349 | 0.376 | 0.392 | 0.599 | 0.422 | 0.559 | 0.369 | 0.481 | 0.574 | 0.432 | 0.402 | 0.372 | 0.242 | 0.4 | 0.4 | 0.424 | 0.39 | 0.412 |
| NCI-H838 | 0.558 | 0.519 | 0.536 | 0.515 | 0.541 | 0.434 | 0.243 | 0.197 | 0.124 | 0.136 | 0.916 | 0.82 | 0.737 | 0.589 | 0.618 | 0.58 | 0.51 | 0.437 | 0.477 | 0.483 |
| NCI-H1355 | 0.45 | 0.438 | 0.474 | 0.403 | 0.367 | 0.688 | 0.516 | 0.525 | 0.306 | 0.186 | 0.833 | 0.875 | 0.788 | 0.441 | 0.234 | 0.435 | 0.412 | 0.4 | 0.421 | 0.468 |
| NCI-H1395 | 1.05 | 1.03 | 1.01 | 0.742 | 0.618 | 0.415 | 0.426 | 0.367 | 0.339 | 0.364 | 0.493 | 0.416 | 0.383 | 0.408 | 0.331 | 1.07 | 0.955 | 1.05 | 0.994 | 0.964 |
